From ChEMBL document CHEMBL3882244, “IL-8 Receptor Antagonists” (2007) come the findings set out here.

One assay has as its target T1, C-X-C chemokine receptor type 2 (Homo sapiens, UniProt P25025).
T1 sequence (P25025 whole entry): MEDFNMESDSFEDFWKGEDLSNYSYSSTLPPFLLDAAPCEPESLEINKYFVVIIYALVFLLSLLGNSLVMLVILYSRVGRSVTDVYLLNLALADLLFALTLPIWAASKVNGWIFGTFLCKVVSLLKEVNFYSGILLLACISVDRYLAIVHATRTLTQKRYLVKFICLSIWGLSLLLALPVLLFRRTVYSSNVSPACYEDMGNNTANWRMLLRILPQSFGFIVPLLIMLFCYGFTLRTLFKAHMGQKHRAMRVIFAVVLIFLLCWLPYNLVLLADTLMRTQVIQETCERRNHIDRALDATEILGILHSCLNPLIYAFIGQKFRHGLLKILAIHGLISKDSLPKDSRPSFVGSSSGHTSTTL
As to the kind of experiment: Displacement of [125I]IL8 from recombinant human CXCR2 expressed in CHO cell membranes measured after 1 hr by TopCount scintillation counting method. For orientation: Displacement assays read how much labelled ligand stays bound in the presence of the test substance.
For the compound `CCc1ccccc1NC(=O)Nc1ccc(Cl)c(S(=O)(=O)[C@@H]2CCNC2)c1O`, the IC50 (usually the concentration that inhibits the measured activity by half) was less than 30000 nM.

In the case of `O=C(Nc1ccc(Cl)c(S(=O)(=O)C2CCNCC2)c1O)Nc1cccc2c1OC(F)(F)O2`, the IC50 was less than 30000 nM.

With `Cc1c(F)cccc1NC(=O)Nc1ccc(Cl)c(S(=O)(=O)C2CNC2)c1O`, the IC50 is less than 30000 nM.

As for `O=C(Nc1ccccc1Oc1ccccc1)Nc1ccc(Cl)c(S(=O)(=O)C2C[C@H]3CC[C@@H](C2)N3)c1O` (some centres not stated), the IC50 was less than 30000 nM.

On to `O=C(Nc1ccc(Cl)c(S(=O)(=O)C2CCCNC2)c1O)Nc1cccc(Cl)c1Cl` (configuration not stated), for which the IC50 was less than 30000 nM.

In the case of `CCc1ccccc1NC(=O)Nc1ccc(Cl)c(S(=O)(=O)C2CCNCC2)c1O`, the IC50 is less than 30000 nM.

For `Cc1c(F)cccc1NC(=O)Nc1ccc(Cl)c(S(=O)(=O)[C@@H]2C[C@H]3CC[C@@H](C2)N3C)c1O`, the 50% inhibitory concentration (IC50) was less than 30000 nM.

Consider `Cc1c(F)cccc1NC(=O)Nc1ccc(Cl)c(S(=O)(=O)CC2CCNC2)c1O` (configuration not stated), for which the IC50 is less than 30000 nM.

Turning to `O=C(Nc1cccnc1Cl)Nc1ccc(Cl)c(S(=O)(=O)[C@H]2CCCNC2)c1O`, the IC50 was less than 30000 nM.

Take `O=C(Nc1ccccc1OC(F)(F)F)Nc1ccc(Cl)c(S(=O)(=O)CC2CCNC2)c1O` (configuration not stated): the IC50 was less than 30000 nM.

On to `O=C(Nc1cccnc1Cl)Nc1ccc(Cl)c(S(=O)(=O)C2CNC2)c1O`, for which the IC50 was less than 30000 nM.

Regarding `CCOC(=O)N1CCC(S(=O)(=O)c2c(Cl)ccc(NC(=O)Nc3ccccc3Oc3ccccc3)c2O)CC1`, the IC50 was less than 30000 nM.

For the compound `O=C(Nc1ccc(Cl)c(S(=O)(=O)[C@@H]2CCNC2)c1O)Nc1cccc(F)c1Cl`, the IC50 is less than 30000 nM.

For `O=C(Nc1ccc(Cl)c(S(=O)(=O)C2CCNCC2)c1O)Nc1cccc(F)c1Cl`, the IC50 was less than 30000 nM.

As to `Cc1c(F)cccc1NC(=O)Nc1ccc(Cl)c(S(=O)(=O)C2CCNCC2)c1O`, the IC50 was less than 30000 nM.

The next assay deals with T1, C-X-C chemokine receptor type 2. As to the kind of experiment: Antagonist activity at CXCR2 (unknown origin) expressed in CHO-K1 cells co-expressing Galpha-16 assessed as inhibition of IL8-induced calcium mobilization measured after 10 mins by Fluo-4AM dye based FLIPR assay. It is filed as functional, cell-based. On the technique in general: Calcium flux is commonly read through the fluorescence of an indicator in the cells.
Consider `CCc1ccccc1NC(=O)Nc1ccc(Cl)c(S(=O)(=O)[C@@H]2CCNC2)c1O`, for which the IC50 is 5 to 600 nM.

On to `O=C(Nc1cccnc1Cl)Nc1ccc(Cl)c(S(=O)(=O)C2CCNCC2)c1O`, for which the half-maximal inhibitory concentration (IC50) was in the range of 5 to 600 nM.

As for `O=C(Nc1ccc(Cl)c(S(=O)(=O)C2CCNCC2)c1O)Nc1cccc2c1OC(F)(F)O2`, the IC50 was 5 to 600 nM.

Consider `CCOC(=O)N1CCC(S(=O)(=O)c2c(Cl)ccc(NC(=O)Nc3cccc(F)c3Cl)c2O)CC1`, for which the IC50 is 5 to 600 nM.

Consider `Cc1c(F)cccc1NC(=O)Nc1ccc(Cl)c(S(=O)(=O)C2CNC2)c1O`, for which the IC50 is 5 to 600 nM.

Consider `O=C(Nc1ccccc1Oc1ccccc1)Nc1ccc(Cl)c(S(=O)(=O)[C@H]2CCNC2)c1O`, for which the IC50 fell in the range of 5 to 600 nM.

As to `O=C(Nc1ccc(Cl)c(S(=O)(=O)CC2CCNC2)c1O)Nc1cccc(F)c1Cl` (configuration not stated), the IC50 is 5 to 600 nM.

Consider `O=C(Nc1ccccc1Oc1ccccc1)Nc1ccc(Cl)c(S(=O)(=O)C2C[C@H]3CC[C@@H](C2)N3)c1O` (some centres not stated), for which the IC50 was 5 to 600 nM.

Turning to `O=C(Nc1ccc(Cl)c(S(=O)(=O)[C@H]2CCNC2)c1O)Nc1cccc(F)c1Cl`, the IC50 lay in the range of 5 to 600 nM.

As to `O=C(Nc1ccccc1OC(F)(F)F)Nc1ccc(Cl)c(S(=O)(=O)[C@@H]2CCNC2)c1O`, the IC50 lay in the range of 5 to 600 nM.

`O=C(Nc1ccc(Cl)c(S(=O)(=O)C2CCCNC2)c1O)Nc1cccc(Cl)c1Cl` (configuration not stated): the IC50 is 5 to 600 nM.

As for `CCc1ccccc1NC(=O)Nc1ccc(Cl)c(S(=O)(=O)C2CCCNC2)c1O` (configuration not stated), the IC50 was 5 to 600 nM.

In the case of `O=C(Nc1ccccc1OC(F)(F)F)Nc1ccc(Cl)c(S(=O)(=O)C2CCNCC2)c1O`, the IC50 was 5 to 600 nM.

As to `O=C(Nc1cccnc1Cl)Nc1ccc(Cl)c(S(=O)(=O)C2CCCNC2)c1O` (configuration not stated), the IC50 lay in the range of 5 to 600 nM.

For the compound `CCc1ccccc1NC(=O)Nc1ccc(Cl)c(S(=O)(=O)C2CCNCC2)c1O`, the IC50 was in the range of 5 to 600 nM.

In the case of `CCOC(=O)N1CCC(S(=O)(=O)c2c(Cl)ccc(NC(=O)Nc3cccc(F)c3C)c2O)CC1`, the IC50 fell in the range of 5 to 600 nM.

With `O=C(Nc1ccc(Cl)c(S(=O)(=O)C2C[C@H]3CC[C@@H](C2)N3)c1O)Nc1cccc(F)c1Cl` (some centres not stated), the IC50 was in the range of 5 to 600 nM.

On to `Cc1c(F)cccc1NC(=O)Nc1ccc(Cl)c(S(=O)(=O)[C@@H]2C[C@H]3CC[C@@H](C2)N3C)c1O`, for which the IC50 is 5 to 600 nM.

On to `Cc1c(F)cccc1NC(=O)Nc1ccc(Cl)c(S(=O)(=O)CC2CCNC2)c1O` (configuration not stated), for which the IC50 fell in the range of 5 to 600 nM.

For `O=C(Nc1ccccc1Oc1ccccc1)Nc1ccc(Cl)c(S(=O)(=O)C2CCNCC2)c1O`, the IC50 fell in the range of 5 to 600 nM.

On to `O=C(Nc1cccnc1Cl)Nc1ccc(Cl)c(S(=O)(=O)C2C[C@H]3CC[C@@H](C2)N3)c1O` (some centres not stated), for which the IC50 was in the range of 5 to 600 nM.

Consider `O=C(Nc1ccc(Cl)c(S(=O)(=O)[C@@H]2CCNC2)c1O)Nc1cccc2c1OC(F)(F)O2`, for which the IC50 fell in the range of 5 to 600 nM.

`O=C(Nc1ccccc1OC(F)(F)F)Nc1ccc(Cl)c(S(=O)(=O)CC2CCNC2)c1O` (configuration not stated): the IC50 fell in the range of 5 to 600 nM.

For the compound `O=C(Nc1ccccc1OC(F)(F)F)Nc1ccc(Cl)c(S(=O)(=O)C2CCCNC2)c1O` (configuration not stated), the IC50 lay within 5 to 600 nM.

Regarding `O=C(Nc1ccc(Cl)c(S(=O)(=O)C2CNC2)c1O)Nc1cccc(F)c1Cl`, the IC50 fell in the range of 5 to 600 nM.

Take `Cc1c(F)cccc1NC(=O)Nc1ccc(Cl)c(S(=O)(=O)C2C[C@H]3CC[C@@H](C2)N3)c1O` (some centres not stated): the IC50 fell in the range of 5 to 600 nM.

`O=C(Nc1cccnc1Cl)Nc1ccc(Cl)c(S(=O)(=O)C2CNC2)c1O`: the IC50 lay in the range of 5 to 600 nM.

As to `CCOC(=O)N1CCC(S(=O)(=O)c2c(Cl)ccc(NC(=O)Nc3ccccc3Oc3ccccc3)c2O)CC1`, the IC50 lay in the range of 5 to 600 nM.

Consider `O=C(Nc1ccc(Cl)c(S(=O)(=O)[C@H]2CCCNC2)c1O)Nc1cccc(F)c1Cl`, for which the 50% inhibitory concentration (IC50) lay within 5 to 600 nM.

Turning to `O=C(Nc1ccc(Cl)c(S(=O)(=O)[C@@H]2CCNC2)c1O)Nc1cccc(F)c1Cl`, the half-inhibitory concentration (IC50) was in the range of 5 to 600 nM.

On to `O=C(Nc1ccc(Cl)c(S(=O)(=O)C2CCNCC2)c1O)Nc1cccc(F)c1Cl`, for which the half-inhibitory concentration (IC50) is 5 to 600 nM.

`Cc1c(F)cccc1NC(=O)Nc1ccc(Cl)c(S(=O)(=O)C2CCNCC2)c1O`: the IC50 fell in the range of 5 to 600 nM.

Turning to `Cc1c(F)cccc1NC(=O)Nc1ccc(Cl)c(S(=O)(=O)[C@H]2CCNC2)c1O`, the IC50 was in the range of 5 to 600 nM.

Regarding `O=C(Nc1cccnc1Cl)Nc1ccc(Cl)c(S(=O)(=O)[C@H]2CCNC2)c1O`, the IC50 is 5 to 600 nM.

The next assay has as its system Blood. In words: Inhibition of GROalpha-induced CD11b integrin expression on human neutrophils in human whole blood pretreated for 10 mins followed by GROalpha challenge measured after 10 mins by FITC/PE staining based flow cytometry. The assay is classed as functional, tissue-based. Background: In flow cytometry, cells or beads pass a laser one at a time.
Turning to `O=C(Nc1ccccc1Oc1ccccc1)Nc1ccc(Cl)c(S(=O)(=O)[C@H]2CCNC2)c1O`, the IC50 lay in the range of 500 to 2000 nM.

Take `O=C(Nc1cccnc1Cl)Nc1ccc(Cl)c(S(=O)(=O)C2CCCNC2)c1O` (configuration not stated): the concentration for half-maximal inhibition (IC50) was in the range of 500 to 2000 nM.

Turning to `O=C(Nc1cccnc1Cl)Nc1ccc(Cl)c(S(=O)(=O)[C@H]2CCCNC2)c1O`, the 50% inhibitory concentration (IC50) lay in the range of 500 to 2000 nM.

Take `O=C(Nc1ccc(Cl)c(S(=O)(=O)[C@H]2CCCNC2)c1O)Nc1cccc(F)c1Cl`: the half-maximal inhibitory concentration (IC50) was 500 to 2000 nM.

`O=C(Nc1ccc(Cl)c(S(=O)(=O)C2CCNCC2)c1O)Nc1cccc(F)c1Cl`: the IC50 was in the range of 500 to 2000 nM.

Consider `Cc1c(F)cccc1NC(=O)Nc1ccc(Cl)c(S(=O)(=O)C2CCNCC2)c1O`, for which the IC50 lay in the range of 500 to 2000 nM.

`O=C(Nc1cccnc1Cl)Nc1ccc(Cl)c(S(=O)(=O)[C@H]2CCNC2)c1O`: the IC50 lay in the range of 500 to 2000 nM.

As to `Cc1c(F)cccc1NC(=O)Nc1ccc(Cl)c(S(=O)(=O)[C@H]2CCCNC2)c1O` [DANIRIXIN], the IC50 lay within 500 to 2000 nM.
